# Results from the CheMixHub viscosity set.
# “And” between values parts separate entries of the source, which are not always exact repeats. Identical values can stand only once. ± gives the uncertainty stated by the source.
# Assay: xn = mol fraction of the nth substance listed
structure (smiles),measurement,setting,value
c1ccc(Nc2ccccc2)cc1 + CCCCCC,viscosity,"298.15 K, 101 kPa, x1 = 0.0477",0.3866 ± 0.0097 mPa·s
same,viscosity,"298.15 K, 101.33 kPa, x1 = 0.0477",0.3866 ± 0.0027 mPa·s
same,viscosity,"303.15 K, 101 kPa, x1 = 0.0477",0.3675 ± 0.0092 mPa·s
same,viscosity,"303.15 K, 101 kPa, x1 = 0.1451",0.5085 ± 0.013 mPa·s
same,viscosity,"303.15 K, 101.33 kPa, x1 = 0.03537",0.352 ± 0.036 mPa·s
same,viscosity,"303.15 K, 101.33 kPa, x1 = 0.04767",0.3675 ± 0.038 mPa·s
same,viscosity,"303.15 K, 101.33 kPa, x1 = 0.0477",0.3675 ± 0.0026 mPa·s
same,viscosity,"303.15 K, 101.33 kPa, x1 = 0.05985",0.3824 ± 0.04 mPa·s
same,viscosity,"303.15 K, 101.33 kPa, x1 = 0.1451",0.5085 ± 0.0036 mPa·s and 0.5085 ± 0.053 mPa·s
same,viscosity,"303.15 K, 101.33 kPa, x1 = 0.3067",1.53 ± 0.16 mPa·s
same,viscosity,"308.15 K, 101 kPa, x1 = 0.0477",0.3515 ± 0.0088 mPa·s
same,viscosity,"308.15 K, 101 kPa, x1 = 0.1451",0.4768 ± 0.012 mPa·s
same,viscosity,"308.15 K, 101.33 kPa, x1 = 0.0477",0.3515 ± 0.0025 mPa·s
same,viscosity,"308.15 K, 101.33 kPa, x1 = 0.1451",0.4768 ± 0.0033 mPa·s
same,viscosity,"313.15 K, 101 kPa, x1 = 0.0477",0.3325 ± 0.0083 mPa·s
same,viscosity,"313.15 K, 101 kPa, x1 = 0.1451",0.4472 ± 0.011 mPa·s
same,viscosity,"313.15 K, 101.33 kPa, x1 = 0.0477",0.3325 ± 0.0023 mPa·s
same,viscosity,"313.15 K, 101.33 kPa, x1 = 0.1451",0.4472 ± 0.0031 mPa·s
same,viscosity,"318.15 K, 101 kPa, x1 = 0.0477",0.3164 ± 0.0079 mPa·s
same,viscosity,"318.15 K, 101 kPa, x1 = 0.1451",0.4182 ± 0.01 mPa·s
same,viscosity,"318.15 K, 101.33 kPa, x1 = 0.03537",0.3079 ± 0.032 mPa·s
same,viscosity,"318.15 K, 101.33 kPa, x1 = 0.04767",0.3164 ± 0.033 mPa·s
same,viscosity,"318.15 K, 101.33 kPa, x1 = 0.0477",0.3164 ± 0.0022 mPa·s
same,viscosity,"318.15 K, 101.33 kPa, x1 = 0.05985",0.3288 ± 0.034 mPa·s
same,viscosity,"318.15 K, 101.33 kPa, x1 = 0.1451",0.4182 ± 0.0029 mPa·s and 0.4182 ± 0.043 mPa·s
same,viscosity,"318.15 K, 101.33 kPa, x1 = 0.3067",0.7796 ± 0.081 mPa·s
CC(C)CCCC(C)CCCC(C)CCCCC(C)CCCC(C)CCCC(C)C (stereo not given) + CC(C)O,viscosity,"298.15 K, 101 kPa, x2 = 0.218",19.65 ± 0.21 mPa·s
same,viscosity,"303.15 K, 101 kPa, x2 = 0.0621",18.75 ± 0.21 mPa·s
same,viscosity,"303.15 K, 101 kPa, x2 = 0.218",15.45 ± 0.17 mPa·s
same,viscosity,"303.15 K, 101 kPa, x2 = 0.4022",13.05 ± 0.14 mPa·s
COC(=O)OCC(F)(F)F + CC1COC(=O)O1,viscosity,"298.15 K, 100 kPa, x2 = 0.0999",1.13 ± 0.024 mPa·s
same,viscosity,"298.15 K, 100 kPa, x2 = 0.2012",1.26 ± 0.027 mPa·s
same,viscosity,"298.15 K, 100 kPa, x2 = 0.3",1.38 ± 0.03 mPa·s
same,viscosity,"298.15 K, 100 kPa, x2 = 0.3991",1.51 ± 0.033 mPa·s
same,viscosity,"298.15 K, 100 kPa, x2 = 0.5012",1.66 ± 0.036 mPa·s
same,viscosity,"298.15 K, 100 kPa, x2 = 0.6016",1.82 ± 0.039 mPa·s
same,viscosity,"298.15 K, 100 kPa, x2 = 0.699",2 ± 0.043 mPa·s
same,viscosity,"298.15 K, 100 kPa, x2 = 0.7994",2.18 ± 0.047 mPa·s
same,viscosity,"298.15 K, 100 kPa, x2 = 0.9002",2.36 ± 0.051 mPa·s
CCCC[N+](CCCC)(CCCC)CCCC.[Cl-] + N[C@@H](CO)C(=O)O,viscosity,"323.15 K, 101 kPa, x1 = 0.9",491 ± 120 mPa·s
CCCCCCCCCCCCO + CCCCCCCCCO,viscosity,"298.15 K, 101.8 kPa, x2 = 0.1246",15.91 ± 0.46 mPa·s
same,viscosity,"298.15 K, 101.8 kPa, x2 = 0.3557",14.07 ± 0.45 mPa·s
same,viscosity,"298.15 K, 101.8 kPa, x2 = 0.5641",12.49 ± 0.43 mPa·s
same,viscosity,"298.15 K, 101.8 kPa, x2 = 0.7516",11.2 ± 0.42 mPa·s
same,viscosity,"298.15 K, 101.8 kPa, x2 = 0.9218",10.02 ± 0.42 mPa·s
same,viscosity,"308.15 K, 101.8 kPa, x2 = 0.1246",10.86 ± 0.43 mPa·s
same,viscosity,"308.15 K, 101.8 kPa, x2 = 0.3557",9.686 ± 0.38 mPa·s
same,viscosity,"308.15 K, 101.8 kPa, x2 = 0.5641",8.677 ± 0.37 mPa·s
same,viscosity,"308.15 K, 101.8 kPa, x2 = 0.7516",7.814 ± 0.37 mPa·s
same,viscosity,"308.15 K, 101.8 kPa, x2 = 0.9218",7.056 ± 0.34 mPa·s
same,viscosity,"318.15 K, 101.8 kPa, x2 = 0.1246",7.599 ± 0.37 mPa·s
same,viscosity,"318.15 K, 101.8 kPa, x2 = 0.3557",6.831 ± 0.35 mPa·s
same,viscosity,"318.15 K, 101.8 kPa, x2 = 0.5641",6.182 ± 0.35 mPa·s
same,viscosity,"318.15 K, 101.8 kPa, x2 = 0.7516",5.591 ± 0.34 mPa·s
same,viscosity,"318.15 K, 101.8 kPa, x2 = 0.9218",5.091 ± 0.33 mPa·s
